Patent US20050107346A1, “N-acetylcolchinol-o-phosphate combination therapies with vascular damaging activity” (ASTRAZENECA AB, priority 2000, published 2005)

Legend:
[1] = test system: murine adenocarcinoma CaNT tumour; assay: CaNT tumour model growth delay, ZD6126 in combination with cisplatin; type: in vivo, mice
Method: ZD6126 alone was dosed on days 0, 2 and 4 using a split dose regimen of 100 mg/kg ZD6126, followed by a 2 hour interval, followed by a further 100 mg/kg ZD6126; doses were given intraperitoneally (i.p.).
Cisplatin (David Bull Laboratories) alone was dosed at 5 mg/kg i.p on day 0.
(§1) The combination treatment consisted of: • Day 0: ZD6126 100 mg/kg i.p., followed by a 2 hour interval, followed by a further 100 mg/kg ZD6126 i.p; and cisplatin 5 mg/kg given 10 minutes before first ZD6126 dose. • Days 2 and 4: ZD6126 100 mg/kg i.p., followed by a 2 hour interval, followed by a further 100 mg/kg ZD6126 i.p..
ZD6126 alone was dosed on days 0, 4, 7 and 11 using a split dose regimen of ZD6126 100 mg/kg i.p., followed by a 2 hour interval, followed by a further 100 mg/kg ZD6126 i.p.. Cisplatin alone was dosed at 5 mg/kg i.p on day 0 and day 7.
as §1, with “• Days 0 and 7:” for “• Day 0:”, “ZD6126 i.p.;” for “ZD6126 i.p; and”, “cisplatin” for “cisplatin 5 mg/kg”, “Days 3, 7” for “Days 2”, “and 10:” for “and 4:”

[2] = test system: human Calu 6 tumour cells; assay: Calu 6 tumour model growth delay, ZD6126 in combination with cisplatin; type: in vivo; details: athymic nude mice; ZD6126 100 mg/kg i.p. x5 days; cisplatin 4 mg/kg i.p. day 0
Method: In a second tumour model, Calu 6, the advantage of combining ZD6126 and cisplatin (cis-Platinum(II)Diammine Dichloride—Sigma P-4394) was confirmed. Athymic nude mice were implanted subcutaneously with 1×10^6 human Calu 6 tumour cells (obtained from American Type Culture Collection, 10801 University Boulevard, Manassas, Va. 20110-2209 Cat. no. Hm-56) and tumours allowed to grow until they were approximately 9 mm in diameter. Groups of 10 tumour bearing mice were then treated as follows:
ZD6126 alone was dosed 100 mg/kg i.p. on days 0, 1, 2, 3, 4.
Cisplatin alone was dosed 4 mg/kg i.p. on day 0.
In the combination arm cisplatin 4 mg/kg i.p. was dosed on day 0, and ZD6126 100 mg/kg i.p. was dosed on days 1, 2, 3, 4 and 5.
The combination of cisplatin and ZD6126 gave a growth delay (time to reach 2× starting volume) of 20.5 days compared to control tumours.

murine KHT sarcoma [3] = assay: KHT sarcoma tumour cell survival (excision and colony formation), cisplatin plus ZD6126; type: in vivo; details: 10 mg/kg cisplatin i.p. alone; assessed 24 hours later
Method: In the murine KHT sarcoma model (Lingyun Li, B. S. et al, Int. J. Radiation Oncology Biol. Phys 42, 899-903, 1998) tumours were treated with either 10 mg/kg cisplatin i.p. alone or 10 mg/kg cisplatin plus ZD6126 (10-100 mg/kg i.p.), cisplatin given 1 hour prior to ZD6126. The effects of the treatments on tumour cell survival was assessed 24 hours later by excising the tumour, disaggregating the cells and determining the number of colonies formed after 10-14 days. Surviving fraction compared to untreated cells was then determined.

[4] = test system: FaDu cells (human squamous cell carcinoma of the pharynx); assay: FaDu tumour model growth delay, ZD6126 in combination with paclitaxel; type: in vivo; details: SCID mice; single dose ZD6126 125 mg/kg i.p.; paclitaxel 15 mg/kg i.p.
Method: In a third tumour model 5×10^5FaDu cells (human squamous cell carcinoma of the pharynx) were implanted onto the rear dorsum of 12-16 week old, female SCID mice. When the tumours had become established they were excised and cut into small tumour fragments approximately 1 mm^3. These fragments were implanted subcutaneously into further SCID mice. Once these tumours had become established (approximately 6 mm diameter) mice were treated with either a single dose of ZD6126 (125 mg/kg i.p.) alone, a single dose of paclitaxel (Taxol-BMS) (15 or 30 mg/kg i.p.) alone or the combination of a single dose of paclitaxel (15 mg/kg i.p.) and ZD6126 (125 mg/kg i.p.), paclitaxel being given 15 minutes before ZD6126.

CaNT tumours = assay: CaNT tumour model growth delay, ZD6126 in combination with ionising radiation; type: in vivo, mice; details: ZD6126 125 mg/kg i.p. days 0-4 and 7-11; radiation 15 Gy days 0 and 7
Method: The activity of combining ZD6126 and radiation in the CaNT tumour model was also investigated. Tumours were treated with either radiation alone (15 Gy days 0 and 7), ZD6126 alone (single dose of ZD6126 125 mg/kg i.p. on days 0, 1, 2, 3, 4, 7, 8, 9, 10 and 11), or a combination of both (15 Gy days 0 and 7, ZD6126 125 mg/kg i.p. on days 0, 1, 2, 3, 4, 7, 8, 9, 10 and 11). On the days radiation and ZD6126 were administered together,radiation treatment was given 3 hours after ZD6126 administration. Radiation was administered by placing the mice in lead boxes so that only the tumour bearing portion of the rear dorsum was exposed to a horizontal X-ray beam (Sheldon and Hill, B J C, 35, 795-808, […]). Mice were irradiated with 240 kV X-rays at a dose rate of 3.6 Gy/min.

murine KHT sarcoma [5] = assay: KHT sarcoma tumour cell survival (excision and colony formation), ZD6126 and radiation; type: in vivo, mice
Method: The murine KHT sarcoma grown in C3H mice was also used to confirm the advantage of combining ZD6126 and radiation. Tumours were treated with either radiation alone (0, 5, 10, 15 or 20 Gy single dose), ZD6126 100 mg/kg i.p., or radiation followed 1 hour later by ZD6126 100 mg/kg i.p.. The effects of either radiation alone, ZD6126 alone or the combination on tumour cell survival was assessed 24 hours later by excising the tumour, disaggregating the cells and determining the number of colonies formed after 10-14 days. Surviving fraction compared to untreated cells was then determined.

[6] = test system: murine adenocarcinoma CaNT tumour; assay: In vivo cell survival excision assay, ZD6126 single versus divided doses in CaNT tumours; set-up: species or system mice
Method: In vivo cell survival was measured using an excision assay (D J Chaplin et al., Anticancer Research 19: 189-196 (1999)).
For each of the assays a) and b) below, the surviving fraction of tumour cells was determined as follows:
Tumours were excised at about 18 hours after treatment, weighed and disaggregated for 1 hour at 37 degrees Celsius in an enzyme cocktail containing 1 mg/ml pronase, 0.5 mg/ml DNAase and 0.5 mg/ml collagenase. Haemocytometer counts of trypan blue-excluding cells were made and viable cells seeded in appropriate concentrations to yield about 50 colonies/dish after in vitro incubation. Heavily irradiated feeder cells (V79 cells) were used at a concentration of 25,000/ml to support the growth of the surviving CaNT cells. The data were calculated as surviving fraction per gram of tumour.
ZD6126 was administered as a single dose of […] intra-peritoneally (i.p.) in saline with a small amount of 1% sodium carbonate added to aid the dissolution of ZD6126.
ZD6126 was dosed using a split dose regimen of 100 mg/kg ZD6126, followed by a time interval, followed by a further 100 mg/kg ZD6126; doses were given intraperitoneally (i.p.) in saline with a small amount of 1% sodium carbonate added to aid the dissolution of ZD6126.
The time intervals used were 1, 2, 3, 4 and 6 hours.
This improved effect varied with the proportion of total dose given in the first and second doses.
ZD6126 was dosed using split dose regimens of: • i) 25 mg/kg ZD6126, followed by a 2 hour interval, followed by a further 175 mg/kg ZD6126; • ii) 50 mg/kg ZD6126, followed by a 2 hour interval, followed by a further 150 mg/kg ZD6126; • iii) 100 mg/kg ZD6126, followed by a 2 hour interval, followed by a further 100 mg/kg ZD6126; • iv) 150 mg/kg ZD6126, followed by a 2 hour interval, followed by a further 50 mg/kg ZD6126; • v) 175 mg/kg ZD6126, followed by a 2 hour interval, followed by a further 25 mg/kg ZD6126;
All doses were given intraperitoneally (i.p.) in saline with a small amount of 1% sodium carbonate added to aid the dissolution of ZD6126.

[7] = study 1, ZD6126 2x100 mg/kg i.p. 2 h apart days 0, 2, 4, cisplatin 5 mg/kg i.p. day 0
[8] = study 2, ZD6126 2x100 mg/kg i.p. 2 h apart days 0, 4, 7, 11, cisplatin 5 mg/kg i.p. days 0 and 7

Row | SMILES | Mean growth delay (vs control) - days [1, 7] | Mean growth delay (vs control) - days [1, 8] | growth delay (time to reach 2× starting volume) compared to control tumours [2] | cell killing (murine KHT sarcoma [3]) | Mean growth delay (vs control) - days [4] | Mean growth delay (vs control) - days (CaNT tumours) | tumour cells killed (murine KHT sarcoma [5]; ZD6126 alone 100 mg/kg) | enhancement in cell killing (murine KHT sarcoma [5]; ZD6126 combined with radiation doses of 5, 10 or 15 Gy) | Plus ZD6126 % cell survival (murine KHT sarcoma [5]; radiation dose 0 Gy, ZD6126 100 mg/kg i.p., C3H mice) | ZD6126 Enhancement (murine KHT sarcoma [5]; radiation dose 0 Gy, ZD6126 100 mg/kg i.p., over controls) | Plus ZD6126 % cell survival (murine KHT sarcoma [5]; radiation dose 5 Gy, ZD6126 100 mg/kg i.p. 1 hour later) | ZD6126 Enhancement (murine KHT sarcoma [5]; radiation dose 5 Gy, ZD6126 100 mg/kg i.p.) | Plus ZD6126 % cell survival (murine KHT sarcoma [5]; radiation dose 10 Gy, ZD6126 100 mg/kg i.p. 1 hour later) | ZD6126 Enhancement (murine KHT sarcoma [5]; radiation dose 10 Gy, ZD6126 100 mg/kg i.p.) | Plus ZD6126 % cell survival (murine KHT sarcoma [5]; radiation dose 15 Gy, ZD6126 100 mg/kg i.p. 1 hour later) | ZD6126 Enhancement (murine KHT sarcoma [5]; radiation dose 15 Gy, ZD6126 100 mg/kg i.p.) | split dose proportion giving the best anti-tumour effect ([6]; 100 mg/kg, 2 hour interval, further 100 mg/kg i.p.) | anti-tumour effect, as measured by surviving fraction of tumour cells, divided doses versus single dose ([6]; divided doses 2 hours apart (25+175, 50+150, 100+100, 150+50, 175+25 mg/kg i.p.) vs single 200 mg/kg) | surviving fraction per gram of tumour, divided doses versus single dose ([6]; two doses of 100 mg/kg i.p. separated by 2, 3 or 4 hours vs a single 200 mg/kg dose, about 18 hours after treatment)
1 | N.N.[Cl-].[Cl-].[Pt+2] [Cisplatin, cis-Platinum(II)Diammine Dichloride, reference compound] | 2.1 days | 7.7 days | 6.0 days | approximately 98% |  |  |  |  |  |  |  |  |  |  |  |  |  |  | 
2 | CC(=O)O[C@H]1C(=O)[C@@]2(C)[C@H]([C@H](OC(=O)c3ccccc3)[C@]3(O)C[C@H](OC(=O)[C@H](O)[C@@H](NC(=O)c4ccccc4)c4ccccc4)C(C)=C1C3(C)C)[C@]1(OC(C)=O)CO[C@@H]1C[C@@H]2O [Paclitaxel, paclitaxel, reference compound] |  |  |  |  | 5.1 days |  |  |  |  |  |  |  |  |  |  |  |  |  | 
3 | COc1cc2c(c(OC)c1OC)-c1ccc(OP(=O)(O)O)cc1[C@@H](NC(C)=O)CC2 [ZD6126, (5S)-5-(acetylamino)-9,10,11-trimethoxy-6,7-dihydro-5H-dibenzo[a,c]cyclohepten-3-yl dihydrogen phosphate] | 6.5 days | 9.9 days | 10.1 days |  | 4.3 days | 9.1 days | 97-98% | 100-200 fold | 2.5% | 40 fold | 0.16% | 125 fold | 0.015% | 100 fold | 0.0016% | 219 fold | best effect was seen with equal split doses | greater with divided doses of ZD6126 than with a single dose | significantly more effective
